# Patent US20070149525A1, “Methods of treating amyloidosis using aryl-cyclopropyl derivative aspartyl protease inhibitors” (priority 2005, published 2007)
# Experiment: In vitro permeability across MDCK cell monolayer
# Format: in vitro ADME, Canine
# Details: dog, MDCK, test compound 5 μM, 2 h at 37° C., apical to basolateral, read-out: Permeability Forward A > B
# Experimental: Compounds were evaluated for permeability across a monolayer of Madin-Darby Canine Kidney (MDCK) cells in a transwell device following culturing for 4 days. […] A 0.5 mL of cell suspension (400,000 cells/mL) was placed on membrane and a 1.5 mL media in the bottom wells on day 1. On day 2 and day 3, cells were fed with new media. […] Media was removed from upper chambers and filled with mHBSS with or without CspA, and incubated 30 min at 37° C. with light shaking. Donor chambers were emptied, and filled with test compound at 5 μM in mHBSS. […] Plates were incubated for 2 h at 37° C. with shaking. After 2 h, both the donor and receiver wells were sampled. The bottom chambers were read in a fluorometer to assess LY leakage, and then the media from all wells were assayed by LC/MS/MS to determine compound levels.
row,"Papp A→B at 2 h, 5 μM",SMILES
1,8.48 ×10⁻⁶ cm/s,"CC(=O)NC(Cc1cc(F)cc(F)c1)C(O)CNC1(n2cccn2)CC1Cc1ccccc1 (single isomer, unassigned) [23.30 Diastereomer A, N-(4-(2-benzyl-1-(1H-pyrazol-1-yl)cyclopropylamino)-1-(3,5-difluorophenyl)-3-hydroxybutan-2-yl)acetamide]"
2,20.4 ×10⁻⁶ cm/s,"CC(=O)NC(Cc1cc(F)cc(F)c1)C(O)CNC1(n2cccn2)C2CCCC21 (stereo not drawn) [Example 23.14, N-(4-(6-(1H-pyrazol-1-yl)bicyclo[3.1.0]hexan-6-ylamino)-1-(3,5-difluorophenyl)-3-hydroxybutan-2-yl)acetamide]"
3,12.1 ×10⁻⁶ cm/s,"CC(=O)NC(Cc1cc(F)cc(F)c1)C(O)CNC1(c2cc(-n3cccn3)cs2)CC1 (stereo not drawn) [Example 23.15, N-(4-(1-(4-(1H-pyrazol-1-yl)thiophen-2-yl)cyclopropylamino)-1-(3,5-difluorophenyl)-3-hydroxybutan-2-yl)acetamide]"
4,13.5 ×10⁻⁶ cm/s,"CC(=O)NC(Cc1cc(F)cc(F)c1)C(O)CNC1(c2cncc(CC(C)(C)C)c2)CC1 (stereo not drawn) [Example 23.16, N-(1-(3,5-difluorophenyl)-3-hydroxy-4-(1-(5-neopentylpyridin-3-yl)cyclopropylamino)butan-2-yl)acetamide]"
5,12.1 ×10⁻⁶ cm/s,"CC(=O)NC(Cc1cc(F)cc(F)c1)C(O)CNC1(c2cn(-c3ccsc3)nn2)CC1 (stereo not drawn) [Example 23.20, N-(1-(3,5-difluorophenyl)-3-hydroxy-4-(1-(1-(thiophen-3-yl)-1H-1,2,3-triazol-4-yl)cyclopropylamino)butan-2-yl)acetamide]"
6,10 ×10⁻⁶ cm/s,"CC(=O)NC(Cc1cc(F)cc(F)c1)C(O)CNC1(c2csc(C(C)(C)C)c2)CC1 (stereo not drawn) [Example 23.21, N-(4-(1-(5-tert-butylthiophen-3-yl)cyclopropylamino)-1-(3,5-difluorophenyl)-3-hydroxybutan-2-yl)acetamide]"
7,11.1 ×10⁻⁶ cm/s,"CC(=O)NC(Cc1cc(F)cc(F)c1)C(O)CNC1(c2cccc(-n3cccn3)c2)CC1C (stereo not drawn) [Example 23.23, N-(4-(1-(3-(1H-pyrazol-1-yl)phenyl)-2-methylcyclopropylamino)-1-(3,5-difluorophenyl)-3-hydroxybutan-2-yl)acetamide]"
8,13.2 ×10⁻⁶ cm/s,"CC(=O)NC(Cc1cc(F)cc(F)c1)C(O)CNC1(c2cccc(C3CCOC3)c2)CC1 (stereo not drawn) [Example 23.24, N-(1-(3,5-difluorophenyl)-3-hydroxy-4-(1-(3-(tetrahydrofuran-3-yl)phenyl)cyclopropylamino)butan-2-yl)acetamide]"
9,10.3 ×10⁻⁶ cm/s,"C=C(c1cccc(C2(NCC(O)C(Cc3cc(F)cc(F)c3)NC(C)=O)CC2)c1)C(F)(F)F (stereo not drawn) [Example 23.26, N-(1-(3,5-difluorophenyl)-3-hydroxy-4-(1-(3-(3,3,3-trifluoroprop-1-en-2-yl)phenyl)cyclopropylamino)butan-2-yl)acetamide]"
10,8.62 ×10⁻⁶ cm/s,"CC(=O)NC(Cc1cc(F)cc(F)c1)C(O)CNC1(c2cncc(-n3cccn3)c2)CC1 (stereo not drawn) [Example 23.29, N-(4-(1-(5-(1H-pyrazol-1-yl)pyridin-3-yl)cyclopropylamino)-1-(3,5-difluorophenyl)-3-hydroxybutan-2-yl)acetamide]"
11,10.7 ×10⁻⁶ cm/s,"CC(=O)NC(Cc1cc(F)cc(F)c1)C(O)CNC1(c2cccc(C3CC=CCO3)c2)CC1 (stereo not drawn) [Example 23.31, N-(1-(3,5-difluorophenyl)-4-(1-(3-(3,6-dihydro-2H-pyran-2-yl)phenyl)cyclopropylamino)-3-hydroxybutan-2-yl)acetamide]"
12,12.1 ×10⁻⁶ cm/s,"CC(=O)NC(Cc1cc(F)cc(F)c1)C(O)CNC1(c2cccc(N3CCOCC3)c2)CC1 (stereo not drawn) [Example 23.32, N-(1-(3,5-difluorophenyl)-3-hydroxy-4-(1-(3-morpholinophenyl)cyclopropylamino)butan-2-yl)acetamide]"
13,12.1 ×10⁻⁶ cm/s,"CC(=O)NC(Cc1cc(F)cc(F)c1)C(O)CNC1(c2cccc(C3CCOCOC3)c2)CC1 (stereo not drawn) [Example 23.34, N-(4-(1-(3-(1,3-dioxepan-5-yl)phenyl)cyclopropylamino)-1-(3,5-difluorophenyl)-3-hydroxybutan-2-yl)acetamide]"
14,19.4 ×10⁻⁶ cm/s,"CC(=O)NC(Cc1cc(F)cc(F)c1)C(O)CNC1(c2c(F)ccc(-n3cccn3)c2F)CC1 (stereo not drawn) [Example 23.35, N-(4-(1-(2,6-difluoro-3-(1H-pyrazol-1-yl)phenyl)cyclopropylamino)-1-(3,5-difluorophenyl)-3-hydroxybutan-2-yl)acetamide]"
15,7.11 ×10⁻⁶ cm/s,"CC(=O)NC(Cc1cc(F)cc(F)c1)C(O)CNC1(c2cnn(C(C)(C)C)c2)CC1 (stereo not drawn) [Example 23.37, N-(4-(1-(1-tert-butyl-1H-pyrazol-4-yl)cyclopropylamino)-1-(3,5-difluorophenyl)-3-hydroxybutan-2-yl)acetamide]"
16,22.1 ×10⁻⁶ cm/s,"O=C(Cc1ccccc1)NC(Cc1cc(F)cc(F)c1)C(O)CNC1(c2cccc(-n3cccn3)c2)CC1 (stereo not drawn) [Example 23.38, N-(4-(1-(3-(1H-pyrazol-1-yl)phenyl)cyclopropylamino)-1-(3,5-difluorophenyl)-3-hydroxybutan-2-yl)-2-phenylacetamide]"
17,12.9 ×10⁻⁶ cm/s,"COCC(=O)NC(Cc1cc(F)cc(F)c1)C(O)CNC1(c2cccc(-n3cccn3)c2)CC1 (stereo not drawn) [Example 23.40, N-(4-(1-(3-(1H-pyrazol-1-yl)phenyl)cyclopropylamino)-1-(3,5-difluorophenyl)-3-hydroxybutan-2-yl)-2-methoxyacetamide]"
18,9.86 ×10⁻⁶ cm/s,"CCOCC(=O)NC(Cc1cc(F)cc(F)c1)C(O)CNC1(c2cccc(-n3cccn3)c2)CC1 (stereo not drawn) [Example 23.41, N-(4-(1-(3-(1H-pyrazol-1-yl)phenyl)cyclopropylamino)-1-(3,5-difluorophenyl)-3-hydroxybutan-2-yl)-2-ethoxyacetamide]"
19,13.3 ×10⁻⁶ cm/s,"COCCOCC(=O)NC(Cc1cc(F)cc(F)c1)C(O)CNC1(c2cccc(-n3cccn3)c2)CC1 (stereo not drawn) [Example 23.44, N-(4-(1-(3-(1H-pyrazol-1-yl)phenyl)cyclopropylamino)-1-(3,5-difluorophenyl)-3-hydroxybutan-2-yl)-2-(2-methoxyethoxy)acetamide]"
20,17 ×10⁻⁶ cm/s,"COC(=O)NC(Cc1cc(F)cc(F)c1)C(O)CNC1(c2cccc(-n3cccn3)c2)CC1 (stereo not drawn) [Example 23.45, methyl 4-(1-(3-(1H-pyrazol-1-yl)phenyl)cyclopropylamino)-1-(3,5-difluorophenyl)-3-hydroxybutan-2-ylcarbamate]"
21,10.9 ×10⁻⁶ cm/s,"CC(=O)NC(Cc1cc(F)cc(F)c1)C(O)CNC1(c2cccc(N3CCSCC3)c2)CC1 (stereo not drawn) [Example 23.48, N-(1-(3,5-difluorophenyl)-3-hydroxy-4-(1-(3-thiomorpholinophenyl)cyclopropylamino)butan-2-yl)acetamide]"
22,10.4 ×10⁻⁶ cm/s,"Cc1cc(CC(=O)NC(Cc2cc(F)cc(F)c2)C(O)CNC2(c3cccc(-n4cccn4)c3)CC2)no1 (stereo not drawn) [Example 23.49, N-(4-(1-(3-(1H-pyrazol-1-yl)phenyl)cyclopropylamino)-1-(3,5-difluorophenyl)-3-hydroxybutan-2-yl)-2-(5-methylisoxazol-3-yl)acetamide]"
23,12.8 ×10⁻⁶ cm/s,"CC(=O)NC(Cc1cc(F)cc(F)c1)C(O)CNC1(c2cccc(C(C)(C)C(F)F)c2)CC1 (stereo not drawn) [Example 23.50, N-(4-(1-(3-(1,1-difluoro-2-methylpropan-2-yl)phenyl)cyclopropylamino)-1-(3,5-difluorophenyl)-3-hydroxybutan-2-yl)acetamide]"
24,12.7 ×10⁻⁶ cm/s,"CC(=O)NC(Cc1cc(F)cc(F)c1)C(O)CNC1(c2cccc(C(F)C(C)(C)F)c2)CC1 (stereo not drawn) [Example 23.51, N-(4-(1-(3-(1,2-difluoro-2-methylpropyl)phenyl)cyclopropylamino)-1-(3,5-difluorophenyl)-3-hydroxybutan-2-yl)acetamide]"
25,14.7 ×10⁻⁶ cm/s,"COCC(C)(C)c1cccc(C2(NCC(O)C(Cc3cc(F)cc(F)c3)NC(C)=O)CC2)c1 (stereo not drawn) [Example 23.52, N-(1-(3,5-difluorophenyl)-3-hydroxy-4-(1-(3-(1-methoxy-2-methylpropan-2-yl)phenyl)cyclopropylamino)butan-2-yl)acetamide]"
26,12.7 ×10⁻⁶ cm/s,"CC(=O)NC(Cc1cc(F)cc(F)c1)C(O)CNC1(c2cccc(C3COCO3)c2)CC1 (stereo not drawn) [Example 23.53, N-(4-(1-(3-(1,3-dioxolan-4-yl)phenyl)cyclopropylamino)-1-(3,5-difluorophenyl)-3-hydroxybutan-2-yl)acetamide]"
27,20.4 ×10⁻⁶ cm/s,"CC(=O)NC(Cc1cc(F)cc(F)c1)C(O)CNC1(c2ncc(C(C)(C)C)o2)CC1 (stereo not drawn) [Example 23.56, N-(4-(1-(5-tert-butyloxazol-2-yl)cyclopropylamino)-1-(3,5-difluorophenyl)-3-hydroxybutan-2-yl)acetamide]"

# Same assay, conditions: dog, test compound 5 μM, 2 h at 37° C., apical to basolateral, read-out: Permeability Forward A > B
row,"Papp A→B at 2 h, 5 μM",SMILES
1,26.7 ×10⁻⁶ cm/s,"CC(=O)NC(Cc1cc(F)cc(F)c1)C(O)CNC1(c2csc(CC(C)(C)C)n2)CC1 (stereo not drawn) [Example 23.19, N-(4-(1-(2-neopentylthiazol-4-yl)cyclopropylanimo)1-(3,5-difluorophenyl)-3-hydroxybutan-2-yl)acetamide]"
2,11.3 ×10⁻⁶ cm/s,"CC(=O)NC(Cc1cc(F)cc(F)c1)C(O)CNC1(c2nc(CC(C)(C)C)cs2)CC1 (stereo not drawn) [Example 23.36, N-(1-(3,5-difluorophenyl)-3-hydroxy-4-(1-(4-neopentylthiazol-2-yl)cyclopropylamino)butan-2-yl)acetamide]"

row,SMILES,"Papp A→B at 2 h, 5 μM"
1,"CC(C)(C)Cc1cc(C2(NCC(O)C(Cc3cc(F)cc(F)c3)NC(=O)CF)CC2)on1 (stereo not drawn) [Example 23.10, N-(4-(1-(3-neopentylisoxazol-5-yl)cyclopropylamino)-1-(3,5-difluorophenyl)-3-hydroxybutan-2-yl)-2-fluoroacetamide]",8.26 ×10⁻⁶ cm/s
